Assay results: PMC7602980 (Biomolecules, 2020)
Where “and” joins values, the source holds several entries; their conditions need not be identical. Equal values may be shown once.

Experiments:
[1] = Circular dichroism (far UV), secondary structure; format: physicochemical; conditions: for CD structure with TFE: 1× PBS pH 5.8, up to 25% TFE, result in words
Method: CD experiments were performed on a JASCO J-815 CD spectrometer at 7 °C in the far UV (260–190 nm) with a 0.1 mm path length quartz cell, using a bandwidth of 1 nm, an integration time of 1 s, and a scan rate of 50 nm/min. Each spectrum is the average of 5 scans. All spectra were corrected by subtracting the solvent spectrum acquired under identical conditions. The protein concentration for each sample was 200–500 μM in 1× PBS at pH 5.8. For CD data collection in presence of TFE, 10× PBS was used to keep the final sample at a constant buffer concentration corresponding to 1x PBS. All CD data were processed using the Spectra Analysis software of Jasco Manager Version 2 (Jasco, Easton, PA, USA).

[2] = test system: Cx43 gap junction channels; conditions: peptide in patch pipette; ref [15]; cited from earlier work
From the text: (§1) The CT plays a role in the trafficking, localization, and turnover of gap junction channels via numerous post-translational modifications and protein–protein interactions. The CT is also important for regulating junctional conductance and voltage sensitivity. […] Conversely, only a few protein partners have been identified to directly bind the CL. For example, in the ...

Cx43CT domain = conditions: ref [14]; cited from earlier work
From the text: as §1

[3] = pH 5.8; ref [14]; cited from earlier work
From the text: as §1

Cx43 = assay: Ionomycin treatment and Triton X-100 solubility assay, HeLa^Cx43 cells, Western blot; format: cell-based; conditions: 100 nM PMA, 1 μM ionomycin, 30 min; insoluble fraction
From the text: (§2) Briefly, 80% confluent parental HeLa cells were transfected with Cx43 WT or ODDD mutations containing pD2529 (puromycin resistant) plasmid using Lipofectamine 2000 (Invitrogen, # 11668019) at a 1:1 (reagent:plasmid) ratio in OptiMem (Life Technologies, #31985070, Carlsbad, CA, USA) under antibiotic free conditions. After re-plating and once colonies were formed, Western blot and immunofluorescence were used to screen the clones (α-Cx43, Sigma #6219, 1:10,000, MilliporeSigma, St. Louis, MO, USA).
After reaching 100% confluency, HeLa^Cx43 cells seeded on 10-cm dishes were incubated in presence of 1 μM ionomycin (Sigma #I0634) for 2 min for equilibration and then either treated with 1 μM ionomycin only as control, or 1 μM ionomycin plus 20 mM Ca^2+, 100 nM PMA (Sigma, # P1585), or 20 mM Ca^2+/100 nM PMA and incubated for 30 min.
The Triton X-100 solubility assay was modified from a method described previously. […] Protein lysate content was quantified by the BCA assay and normalized. […] After analysis of the insoluble fraction by Western blot, quantification from three independent replicates was measured using the iBright Analysis Software (version 3.1.3, Thermo Scientific) and statistical analysis was performed in GraphPad Prism 8.0 (San Diego, CA, USA) using the Ordinary one way Anova calculation. p-values < 0.05 were considered statistically significant.

ERK2 = assay: In vitro kinase assay, ERK2 phosphorylation of GST-Cx43CT236-382; format: biochemical; conditions: CaM ~90% saturation of Cx43CT; 6 h RT; Western blot pS279/S282; three independent experiments
Method: (§3) After incubation of 4 h at RT for Src, 6 h at 30 °C for ERK1, and 6 h at RT for ERK2, phosphorylation levels of the Cx43CT were detected by Western blot using Cx43 specific anti-phospho antibodies. Three independent experiments were performed and phosphorylation levels were quantified using the iBright Analysis Software and statistical analysis were performed in GraphPad Prism 8.0 using a Student’s t-test. p-values < 0.05 were considered statistically significant.

ERK1 = assay: In vitro kinase assay, ERK1 phosphorylation of GST-Cx43CT236-382; format: biochemical; conditions: CaM ~90% saturation of Cx43CT; 6 h 30 °C; Western blot pS279/S282; three independent experiments; Student's t-test
Method: as §3

Src = assay: In vitro kinase assay, Src phosphorylation of GST-Cx43CT236-382; format: biochemical; conditions: CaM ~90% saturation of Cx43CT; 4 h RT; Western blot Cx43 pY265; three independent experiments
Method: as §3

Cx43CT236-382 = assay: NMR titration (15N-HSQC) of 15N-Cx43CT236-382 with CaM; format: binding, rat; conditions: Ca^+2 not present, 10 mM EGTA
Method: (§4) All polypeptides were equilibrated in 1x phosphate-buffered saline (1x PBS) at pH 5.8 or KCl 100 mM, CaCl2 5 mM at pH 6.5 using NAP-5 columns (GE Healthcare, #17-0853-01, Chicago, MI, USA) by dialysis in Slide-A-Lyzer G2 Dialysis Cassettes, 2K MWCO (Thermo Scientific, #87717, Waltham, MA, USA).
(§5) NMR data were acquired at 7 °C or 25 °C using a 600 MHz Varian INOVA (Agilent Technologies, Santa Clara, CA, USA) or a 600 MHz Bruker Avance-III HD spectrometer (Bruker, Billerica, MA, USA) outfitted with a cryoprobe at the NMR Facility of the University of Nebraska Medical Center. […] NMR spectra were processed using NMRPipe (IBBR, Rockville, MD, USA) [46] and analyzed using NMRView (https://nmrfx.org) [47].
(§6) Data were acquired with 1024 complex points in the direct dimension and 128 complex points in the indirect dimension. Chemical shift variations were calculated according to the formula Δσ = √((ΔδHN)^2 + (ΔδN/5)^2) and plotted as a function of ligand concentration. Dissociation constants (KD) were calculated by nonlinear fitting of the titration curves using GraphPad Prism 7.0 (GraphPad Software, La Jolla, CA, USA) and averaging at least six curves.

CaM = target: T1, CaM (Rattus norvegicus, UniProt P0DP29); assay: NMR titration (15N-HSQC) of 15N-CaM with Cx43CL136-158 peptides; format: binding; conditions: result in words
T1 construct: made in house; host or cells: pAED4 vector
Method: as §4, §5, §6

HeLa cells [4] = assay: Scrape loading dye transfer, stably transfected HeLa cells; format: cell-based; conditions: cell layers past scrape; 100% confluent HeLa
From the text: as §2
Cell communication was evaluated as previously described. Briefly, stably transfected HeLa cells described above were grown to 100% confluency. Media was replaced with pre-warmed dye transfer solution (0.25% Lucifer yellow CH (Life Technologies # L453) and 0.1% Texas Red 1 × 10^4 (Life Tech # D1863) in 1× PBS at 37 °C) and cells were immediately scrape-loaded with a fine edged micro-scalpel by three longitudinal scratches. After incubating at 37 °C for 4 min, cells were rinsed with 1× PBS and further incubated in antibiotic free media for 6 min. Dye spread was then stopped by washing the cells with 1× PBS containing 1 mM CaCl2 and 1 mM MgCl2. Cells were finally fixed, DAPI stained, mounted, and imaged.

HeLa cells [5] = assay: In situ Triton X-100 extraction and immunofluorescence, stably transfected HeLa cells; format: cell-based; conditions: 1% Triton X-100 in situ extraction
From the text: as §2
After reaching 100% confluency, cells seeded on glass coverslips were fixed in 4% paraformaldehyde (1× PBS, pH 7.4) and then blocked in 5% goat serum (1× TBS, 0.4% Triton X-100). Coverslips were then incubated with the appropriate primary antibody (α-Cx43, Sigma #6219, 1:200) diluted in blocking buffer overnight at 4 °C. Fluorescent secondary antibody (α-Rb Alexa Fluor 488, Cell Signaling #4412, 1:300) was then applied, followed by DAPI (100 ng/mL in 1× TBS). Coverslips were mounted on a drop of SlowFade anti-fade (Life Technologies, Carlsbad, CA, USA # S36972), sealed with clear nail polish, and imaged.
The in situ detergent extraction was previously described. […]

In the case of “Cx43L2: synthetic peptide, Cx43CL residues D119-K144”, the “CD structure with TFE” value [1] is given as “clearly adopted an α-helical structure”, the “effect on single channel behaviour” value [2] is given as “interfered with the occurrence of the residual state and prolonged open time” and the “affinity for the CT at pH 5.8 compared with pH 7.4” value (Cx43CT domain) is given as “greater than at pH 7.4”. For the same compound, the secondary structure [3] was “two short α-helices”.
With `CCCCCCCCCCCCCC(=O)O[C@@H]1[C@@H](C)[C@@]2(O)[C@@H](C=C(CO)C[C@]3(O)C(=O)C(C)=C[C@@H]23)[C@@H]2C(C)(C)[C@]12OC(C)=O` [PMA] the Y265 phosphorylation (Cx43) was “increasing Y265 phosphorylation” and the “level of total Cx43 at the plaque” value (Cx43) was “decreased the level of total Cx43 at the plaque”.
With “Cx43CL100-155: recombinant rat full-length Cx43CL domain, residues M100-Y155 (MRKEEKLNKKEEELKVAQTDGVNVEMHLKQIEIKKFKYGIEEHGKVKMRGGLLRTY; cytoplasmic loop; UniProt P08050 100-155, looked up, fragment)” the “CD structure with TFE” value [1] was “able to form α-helical structure” and the α-helical content ([1]; 1× PBS, pH 5.8, 7 °C, 200–500 μM, estimated by comparing previous data) was “less than 5%”.
In the case of calmodulin [CaM], the “inhibition of ERK2 phosphorylation of Cx43CT” value (ERK2) is reported as ~ 30% and 30%, the “effect on ERK1 phosphorylation of Cx43CT” value (ERK1) is reported as “not statistically significant” and the “inhibition of Src phosphorylation of Cx43CT” value (Src) is reported as ~ 90% and 90%. The “interaction of CaM with Cx43CT without Ca^2+” value (Cx43CT236-382) was “the interaction is lost when Ca^+2 is not present”.
With `CC[C@H](C)[C@H](NC(=O)CNC(=O)[C@H](Cc1ccc(O)cc1)NC(=O)[C@@H](N)CCCCN)C(=O)N[C@@H](CCC(=O)O)C(=O)N[C@@H](CCC(=O)O)C(=O)N[C@@H](Cc1c[nH]cn1)C(=O)NCC(=O)N[C@@H](CCCCN)C(=O)N[C@H](C(=O)N[C@@H](CCCCN)C(=O)N[C@@H](CCSC)C(=O)N[C@@H](CCC(N)=O)C(=O)NCC(=O)NCC(=O)N[C@@H](CC(C)C)C(=O)N[C@@H](CC(C)C)C(=O)N[C@@H](CCCNC(=N)N)C(=O)N[C@H](C(=O)N[C@@H](Cc1ccc(O)cc1)C(=O)N[C@H](C(=O)N[C@H](C(=O)N[C@@H](CO)C(=O)O)[C@@H](C)CC)[C@@H](C)CC)[C@@H](C)O)C(C)C` [R148Q] the “KD compared with control (WT)” value (CaM) was “little-to-no difference in KD”.
In the case of `CC[C@H](C)[C@H](NC(=O)CNC(=O)[C@H](Cc1ccc(O)cc1)NC(=O)[C@@H](N)CCCCN)C(=O)N[C@@H](CCC(=O)O)C(=O)N[C@@H](CCC(=O)O)C(=O)N[C@@H](Cc1c[nH]cn1)C(=O)NCC(=O)N[C@@H](CCCCN)C(=O)N[C@H](C(=O)N[C@@H](CCCCN)C(=O)N[C@H](C(=O)N[C@@H](CCCNC(=N)N)C(=O)NCC(=O)NCC(=O)N[C@@H](CC(C)C)C(=O)N[C@@H](CC(C)C)C(=O)N[C@@H](CCCNC(=N)N)C(=O)N[C@H](C(=O)N[C@@H](Cc1ccc(O)cc1)C(=O)N[C@H](C(=O)N[C@H](C(=O)N[C@@H](CO)C(=O)O)[C@@H](C)CC)[C@@H](C)CC)[C@@H](C)O)[C@@H](C)O)C(C)C` [M147T], the “KD compared with control (WT)” value (CaM) is reported as “little-to-no difference in KD”.
In the case of “Cx43CL100-158: recombinant rat Cx43CL construct, residues M100-S158 (MRKEEKLNKKEEELKVAQTDGVNVEMHLKQIEIKKFKYGIEEHGKVKMRGGLLRTYIIS; cytoplasmic loop; UniProt P08050 100-158, looked up, fragment)”, the “CD structure with TFE” value [1] is reported as “did not elicit the same degree of α-helical content as Cx43CL100-155”.
For `CC[C@H](C)[C@H](NC(=O)CNC(=O)[C@H](Cc1ccc(O)cc1)NC(=O)[C@@H](N)CCCCN)C(=O)N[C@@H](CCC(=O)O)C(=O)N[C@@H](CCC(=O)O)C(=O)N[C@@H](Cc1c[nH]cn1)C(=O)NCC(=O)N[C@@H](CCCCN)C(=O)N[C@H](C(=O)N[C@@H](CCCCN)C(=O)N[C@@H](CCSC)C(=O)N[C@@H](CCCNC(=N)N)C(=O)NCC(=O)NCC(=O)N[C@@H](CC(C)C)C(=O)N[C@@H](CC(C)C)C(=O)N[C@@H](CCCNC(=N)N)C(=O)N[C@@H](C)C(=O)N[C@@H](Cc1ccc(O)cc1)C(=O)N[C@H](C(=O)N[C@H](C(=O)N[C@@H](CO)C(=O)O)[C@@H](C)CC)[C@@H](C)CC)C(C)C` [T154A], the “KD compared with control (WT)” value (CaM) was “little-to-no difference in KD”.
For “Cx43L1: synthetic peptide, Cx43CL residues M100-A116 (MRKEEKLNKKEEELKVA; UniProt P08050 100-116, looked up, fragment)”, the “CD structure with TFE” value [1] was “at 25% of TFE, the spectrum was still typical of a predominantly random coiled protein”.
In the case of “Cx43 WT: Cx43 wild type stably expressed in HeLa cells”, the “Lucifer Yellow dye transfer” value (HeLa cells [4]) is reported as “greater than a fifth-order dye transfer” and the “Triton X-100 solubility / localization” value (HeLa cells [5]) is reported as “only a small amount of Cx43 washed away in the presence of Triton X-100”.
